Values of other authors, collected in US20140170075A1, “NON-INVASIVE IMAGING METHODS FOR PATIENT SELECTION FOR TREATMENT WITH NANOPARTICULATE THERAPEUTIC AGENTS” (Merrirnack Pharmaceuticals, Inc., priority 2012, published 2014).

Test system: cancer cell proliferation
Conditions: more active than irinotecan

CCc1c2c(nc3ccc(O)cc13)-c1cc3c(c(=O)n1C2)COC(=O)[C@]3(O)CC [SN-38]
activity as an inhibitor of cancer cell proliferation relative to irinotecan: 100-1000 ×
